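Five compound concentrations were applied to cells in 96-well plates for 48 hours; endpoints were derived by simple linear interpolation of the resulting dose-response curve. The concentration for full growth arrest is given as TGI.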
What was measured:
Test in all cases: NCI anticancer screen, dose series, 48 h
786-0 renal = system: 786-0 renal
A498 renal = system: A498 renal
A549 NSCLC = system: A549 NSCLC
ACHN renal = system: ACHN renal
BT-549 breast = system: BT-549 breast
CAKI-1 renal = system: CAKI-1 renal
CCRF-CEM leukemia = system: CCRF-CEM leukemia
COLO 205 colon = system: COLO 205 colon
DU-145 prostate = system: DU-145 prostate
EKVX NSCLC = system: EKVX NSCLC
HCC-2998 colon = system: HCC-2998 colon
HCT-116 colon = system: HCT-116 colon
HCT-15 colon = system: HCT-15 colon
HOP-62 NSCLC = system: HOP-62 NSCLC
HOP-92 NSCLC = system: HOP-92 NSCLC
HT29 colon = system: HT29 colon
IGROV1 ovarian = system: IGROV1 ovarian
K-562 leukemia = system: K-562 leukemia
LOX IMVI melanoma = system: LOX IMVI melanoma
M14 melanoma = system: M14 melanoma
MALME-3M melanoma = system: MALME-3M melanoma
MCF7 breast = system: MCF7 breast
MDA-MB-231 breast = system: MDA-MB-231 breast
MDA-MB-435 = system: MDA-MB-435
MDA-N = system: MDA-N
MOLT-4 leukemia = system: MOLT-4 leukemia
NCI-H226 lung = system: NCI-H226 lung
NCI-H23 lung = system: NCI-H23 lung
NCI-H460 lung = system: NCI-H460 lung
NCI-H522 lung = system: NCI-H522 lung
NCI/ADR-RES ovarian = system: NCI/ADR-RES ovarian
OVCAR-3 ovarian = system: OVCAR-3 ovarian
OVCAR-4 ovarian = system: OVCAR-4 ovarian
OVCAR-5 ovarian = system: OVCAR-5 ovarian
OVCAR-8 ovarian = system: OVCAR-8 ovarian
PC-3 prostate = system: PC-3 prostate
RPMI-8226 leukemia = system: RPMI-8226 leukemia
RXF 393 renal = system: RXF 393 renal
SF-268 CNS = system: SF-268 CNS
SF-295 CNS = system: SF-295 CNS
SF-539 CNS = system: SF-539 CNS
SK-MEL-2 melanoma = system: SK-MEL-2 melanoma
SK-MEL-28 melanoma = system: SK-MEL-28 melanoma
SK-MEL-5 melanoma = system: SK-MEL-5 melanoma
SK-OV-3 ovarian = system: SK-OV-3 ovarian
SN12C renal = system: SN12C renal
SNB-19 CNS = system: SNB-19 CNS
SR leukemia = system: SR leukemia
SW-620 colon = system: SW-620 colon
T-47D breast = system: T-47D breast
TK-10 renal = system: TK-10 renal
U251 CNS = system: U251 CNS
UACC-257 melanoma = system: UACC-257 melanoma
UACC-62 melanoma = system: UACC-62 melanoma
UO-31 renal = system: UO-31 renal
HL-60(TB) leukemia = system: HL-60(TB) leukemia
HS 578T breast = system: HS 578T breast
KM12 colon = system: KM12 colon
SNB-75 CNS = system: SNB-75 CNS

Structure (SMILES): COc1cccc2c(Nc3ccc(S(=O)(=O)N=C(N)N)cc3)c3ccc([N+](=O)[O-])cc3nc12
- TGI (786-0 renal): 46.7 µM
- TGI (A498 renal): 44.9 µM
- TGI (A549 NSCLC): > 100 µM
- TGI (ACHN renal): 31.9 µM
- TGI (BT-549 breast): 46.1 µM
- TGI (CAKI-1 renal): 32.1 µM
- TGI (CCRF-CEM leukemia): 31.6 µM
- TGI (COLO 205 colon): > 100 µM
- TGI (DU-145 prostate): > 100 µM
- TGI (EKVX NSCLC): > 100 µM
- TGI (HCC-2998 colon): 87.2 µM
- TGI (HCT-116 colon): > 100 µM
- TGI (HCT-15 colon): > 100 µM
- TGI (HOP-62 NSCLC): 64.3 µM
- TGI (HOP-92 NSCLC): > 100 µM
- TGI (HT29 colon): > 100 µM
- TGI (IGROV1 ovarian): 31.4 µM
- TGI (K-562 leukemia): > 100 µM
- TGI (LOX IMVI melanoma): 57 µM
- TGI (M14 melanoma): > 100 µM
- TGI (MALME-3M melanoma): 31.4 µM
- TGI (MCF7 breast): > 100 µM
- TGI (MDA-MB-231 breast): 18 µM
- TGI (MDA-MB-435): > 100 µM
- TGI (MDA-N): 61.1 µM
- TGI (MOLT-4 leukemia): > 100 µM
- TGI (NCI-H226 lung): > 100 µM
- TGI (NCI-H23 lung): 52.3 µM
- TGI (NCI-H460 lung): > 100 µM
- TGI (NCI-H522 lung): 36.5 µM
- TGI (NCI/ADR-RES ovarian): > 100 µM
- TGI (OVCAR-3 ovarian): > 100 µM
- TGI (OVCAR-4 ovarian): > 100 µM
- TGI (OVCAR-5 ovarian): > 100 µM
- TGI (OVCAR-8 ovarian): > 100 µM
- TGI (PC-3 prostate): > 100 µM
- TGI (RPMI-8226 leukemia): 86.5 µM
- TGI (RXF 393 renal): > 100 µM
- TGI (SF-268 CNS): > 100 µM
- TGI (SF-295 CNS): > 100 µM
- TGI (SF-539 CNS): > 100 µM
- TGI (SK-MEL-2 melanoma): 37.6 µM
- TGI (SK-MEL-28 melanoma): > 100 µM
- TGI (SK-MEL-5 melanoma): 45.5 µM
- TGI (SK-OV-3 ovarian): > 100 µM
- TGI (SN12C renal): > 100 µM
- TGI (SNB-19 CNS): > 100 µM
- TGI (SR leukemia): 70.7 µM
- TGI (SW-620 colon): > 100 µM
- TGI (T-47D breast): 85.9 µM
- TGI (TK-10 renal): > 100 µM
- TGI (U251 CNS): > 100 µM
- TGI (UACC-257 melanoma): 56.1 µM
- TGI (UACC-62 melanoma): 32.8 µM
- TGI (UO-31 renal): 44.7 µM

Structure (SMILES): CCOC(=O)/C(=C\NCc1ccc2c(c1)OCO2)c1nc2ccccc2[nH]1
- TGI (786-0 renal): > 100 µM
- TGI (A498 renal): > 100 µM
- TGI (A549 NSCLC): > 100 µM
- TGI (ACHN renal): > 100 µM
- TGI (BT-549 breast): > 100 µM
- TGI (CAKI-1 renal): > 100 µM
- TGI (CCRF-CEM leukemia): > 100 µM
- TGI (COLO 205 colon): > 100 µM
- TGI (DU-145 prostate): > 100 µM
- TGI (EKVX NSCLC): > 100 µM
- TGI (HCC-2998 colon): > 100 µM
- TGI (HCT-116 colon): > 100 µM
- TGI (HCT-15 colon): > 100 µM
- TGI (HL-60(TB) leukemia): > 100 µM
- TGI (HOP-62 NSCLC): > 100 µM
- TGI (HOP-92 NSCLC): > 100 µM
- TGI (HS 578T breast): > 100 µM
- TGI (HT29 colon): > 100 µM
- TGI (IGROV1 ovarian): > 100 µM
- TGI (K-562 leukemia): > 100 µM
- TGI (KM12 colon): > 100 µM
- TGI (LOX IMVI melanoma): > 100 µM
- TGI (M14 melanoma): > 100 µM
- TGI (MALME-3M melanoma): > 100 µM
- TGI (MCF7 breast): > 100 µM
- TGI (MDA-MB-435): > 100 µM
- TGI (MDA-N): > 100 µM
- TGI (MOLT-4 leukemia): > 100 µM
- TGI (NCI-H226 lung): > 100 µM
- TGI (NCI-H23 lung): > 100 µM
- TGI (NCI-H460 lung): > 100 µM
- TGI (NCI-H522 lung): > 100 µM
- TGI (NCI/ADR-RES ovarian): > 100 µM
- TGI (OVCAR-3 ovarian): > 100 µM
- TGI (OVCAR-4 ovarian): > 100 µM
- TGI (OVCAR-5 ovarian): > 100 µM
- TGI (OVCAR-8 ovarian): > 100 µM
- TGI (PC-3 prostate): > 100 µM
- TGI (RPMI-8226 leukemia): > 100 µM
- TGI (RXF 393 renal): > 100 µM
- TGI (SF-268 CNS): > 100 µM
- TGI (SF-295 CNS): > 100 µM
- TGI (SF-539 CNS): > 100 µM
- TGI (SK-MEL-2 melanoma): > 100 µM
- TGI (SK-MEL-28 melanoma): > 100 µM
- TGI (SK-MEL-5 melanoma): > 100 µM
- TGI (SK-OV-3 ovarian): > 100 µM
- TGI (SN12C renal): > 100 µM
- TGI (SNB-19 CNS): > 100 µM
- TGI (SNB-75 CNS): > 100 µM
- TGI (SR leukemia): > 100 µM
- TGI (SW-620 colon): > 100 µM
- TGI (T-47D breast): > 100 µM
- TGI (TK-10 renal): 60 µM
- TGI (U251 CNS): > 100 µM
- TGI (UACC-257 melanoma): > 100 µM
- TGI (UACC-62 melanoma): > 100 µM
- TGI (UO-31 renal): > 100 µM

Structure (SMILES): CC1(C)CN=C(Nc2ccc(F)cc2)S1
- TGI (786-0 renal): > 100 µM
- TGI (A549 NSCLC): > 100 µM
- TGI (ACHN renal): > 100 µM
- TGI (BT-549 breast): > 100 µM
- TGI (CAKI-1 renal): > 100 µM
- TGI (CCRF-CEM leukemia): > 100 µM
- TGI (COLO 205 colon): > 100 µM
- TGI (DU-145 prostate): > 100 µM
- TGI (EKVX NSCLC): > 100 µM
- TGI (HCC-2998 colon): > 100 µM
- TGI (HCT-116 colon): > 100 µM
- TGI (HCT-15 colon): > 100 µM
- TGI (HL-60(TB) leukemia): > 100 µM
- TGI (HOP-62 NSCLC): > 100 µM
- TGI (HOP-92 NSCLC): > 100 µM
- TGI (HS 578T breast): > 100 µM
- TGI (HT29 colon): > 100 µM
- TGI (IGROV1 ovarian): > 100 µM
- TGI (K-562 leukemia): > 100 µM
- TGI (KM12 colon): > 100 µM
- TGI (LOX IMVI melanoma): > 100 µM
- TGI (M14 melanoma): > 100 µM
- TGI (MALME-3M melanoma): > 100 µM
- TGI (MCF7 breast): > 100 µM
- TGI (MDA-MB-435): > 100 µM
- TGI (MDA-N): > 100 µM
- TGI (MOLT-4 leukemia): > 100 µM
- TGI (NCI-H226 lung): > 100 µM
- TGI (NCI-H23 lung): > 100 µM
- TGI (NCI-H522 lung): > 100 µM
- TGI (NCI/ADR-RES ovarian): > 100 µM
- TGI (OVCAR-3 ovarian): > 100 µM
- TGI (OVCAR-4 ovarian): > 100 µM
- TGI (OVCAR-5 ovarian): > 100 µM
- TGI (OVCAR-8 ovarian): > 100 µM
- TGI (PC-3 prostate): > 100 µM
- TGI (RPMI-8226 leukemia): > 100 µM
- TGI (RXF 393 renal): > 100 µM
- TGI (SF-268 CNS): > 100 µM
- TGI (SF-295 CNS): > 100 µM
- TGI (SF-539 CNS): > 100 µM
- TGI (SK-MEL-2 melanoma): > 100 µM
- TGI (SK-MEL-28 melanoma): > 100 µM
- TGI (SK-MEL-5 melanoma): > 100 µM
- TGI (SK-OV-3 ovarian): > 100 µM
- TGI (SN12C renal): > 100 µM
- TGI (SNB-19 CNS): > 100 µM
- TGI (SNB-75 CNS): > 100 µM
- TGI (SR leukemia): > 100 µM
- TGI (SW-620 colon): > 100 µM
- TGI (T-47D breast): > 100 µM
- TGI (TK-10 renal): > 100 µM
- TGI (U251 CNS): > 100 µM
- TGI (UACC-257 melanoma): > 100 µM
- TGI (UACC-62 melanoma): > 100 µM
- TGI (UO-31 renal): > 100 µM

Reference: PubChem BioAssay (NCI)
